# Measurements: patent publication US12344610B2, “APOL1 inhibitors and methods of use” (Maze Therapeutics, Inc., priority 2022, dated 2025)
# pEC50: −log10 of the molar value. Where two headings read alike, the source gives them in different places.
# What was measured:
# Type in all cases: cell-based
# Conditions in all cases: geometric mean of at least 2 assay runs, † = single assay run
# [1] = system: HEK293 cells overexpressing APOL1 G2; assay: APOL1 G2 HEK293 cell rescue assay (reversal of cell death caused by overexpression of APOL1)
# In short: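 Each compound tested in duplicate wells on one plate per run, with values usually the geometric mean across at least two runs on different days, occasionally from one run only. Read-out: concentration giving half-maximal rescue of APOL1 G2 overexpression-induced death of HEK293 cells.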
# [2] = system: Trypanosoma brucei Lister 427 VSG221 with APOL1 G0 recombinant protein; assay: APOL1 G0 trypanosome cell rescue assay (Example B5)
# In short: (§1)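 Viability read by CellTiter-Glo luminescence after 20 h co-incubation (37° C, 5% CO2) of 250 trypanosomes/well in modified HMI-9 with test compound (duplicate 11-point, 2-fold dilutions, 0.4% DMSO) and APOL1 protein, […]. Protein: mature residues 28-398, E. coli inclusion-body refolded, tag cleaved, in DDM.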
# [3] = system: Trypanosoma brucei Lister 427 VSG221 with APOL1 G1 recombinant protein; assay: APOL1 G1 trypanosome cell rescue assay (Example B5)
# In short: as §1
# [4] = system: Trypanosoma brucei Lister 427 VSG221 with APOL1 G2 recombinant protein; assay: APOL1 G2 trypanosome cell rescue assay (Example B5)
# In short: as §1
# [5] = Homo sapiens, HEK293, HEK293 overexpressing APOL1 G2
# [6] = Trypanosoma brucei, 20 h, read-out: APOL1 G0 Trypanosome Rescue EC50, Trypanosoma brucei Lister 427 VSG221 with APOL1 G0 recombinant protein, 20 hours, CellTiter-Glo
# [7] = Trypanosoma brucei, 20 h, read-out: APOL1 G1 Trypanosome Rescue EC50, Trypanosoma brucei Lister 427 VSG221 with APOL1 G1 recombinant protein, 20 hours, CellTiter-Glo
# [8] = Trypanosoma brucei, 20 h, read-out: APOL1 G2 Trypanosome Rescue EC50, Trypanosoma brucei Lister 427 VSG221 with APOL1 G2 recombinant protein, 20 hours, CellTiter-Glo
# [9] = read-out: APOL1 G0 Trypanosome Rescue EC50, Trypanosoma brucei Lister 427 VSG221 with APOL1 G0 recombinant protein, 20 hours, CellTiter-Glo
# [10] = read-out: APOL1 G1 Trypanosome Rescue EC50, Trypanosoma brucei Lister 427 VSG221 with APOL1 G1 recombinant protein, 20 hours, CellTiter-Glo
# [11] = read-out: APOL1 G2 Trypanosome Rescue EC50, Trypanosoma brucei Lister 427 VSG221 with APOL1 G2 recombinant protein, 20 hours, CellTiter-Glo
compound,measurement,setting,value
"CC(C)N1C(=O)CCc2cc(OCCN3CCC4(CC3)C(=O)Nc3ccc(Cl)cc34)ccc21 [Compound 97, 5-chloro-1′-(2-{[2-oxo-1-(propan-2-yl)-1,2,3,4-tetrahydroquinolin-6-yl]oxy}ethyl)-1,2-dihydrospiro[indole-3,4′-piperidin]-2-one]",pEC50,[1]; [5],7.35
same,pEC50,[2]; [6],7.00
same,pEC50,[3]; [7],7.01
same,pEC50,[4]; [8],7.39
"CS(=O)(=O)N(CCO)c1ccc(OCCN2CCC3(CC2)C(=O)Nc2ccc(Cl)cc23)cc1 [Compound 98, N-[4-(2-{5-chloro-2-oxo-1,2-dihydrospiro[indole-3,4′-piperidin]-1′-yl}ethoxy)phenyl]-N-(2-hydroxyethyl)methanesulfonamide]",pEC50,[1]; [5],7.26
same,pEC50,[2]; [6],6.68
same,pEC50,[3]; [7],6.59
same,pEC50,[4]; [8],7.14
"O=C1CCc2cc(OCCN3CCC4(CC3)C(=O)Nc3ccc(Cl)cc34)cnc2N1[C@H]1C[C@H](O)C1 [Compound 267, 5-chloro-1′-[2-({7-oxo-8-[(trans)-3-hydroxycyclobutyl]-5,6,7,8-tetrahydro-1,8-naphthyridin-3-yl}oxy)ethyl]-1,2-dihydrospiro[indole-3,4′-piperidin]-2-one]",pEC50,[1]; [5],7.42
same,pEC50,[2]; [6],7.02
same,pEC50,[3]; [7],6.94
same,pEC50,[4]; [8],7.47
"CS(=O)(=O)C1(c2ccc(OCCN3CCC4(CC3)C(=O)Nc3ccc(Cl)cc34)cc2)CC(O)C1 (stereo not drawn) [Compound 269, 5-chloro-1′-(2-{4-[(cis) or (trans)-3-hydroxy-1-methanesulfonylcyclobutyl]phenoxy}ethyl)-1,2-dihydrospiro[indole-3,4′-piperidin]-2-one]",pEC50,[1]; HEK293 overexpressing APOL1 G2,6.99
same,pEC50,[2]; [9],6.68
same,pEC50,[3]; [10],6.56
same,pEC50,[4]; [11],7.10
"CS(=O)(=O)C1(c2ccc(OCCN3CCC4(CC3)C(=O)Nc3ccc(Cl)cc34)cc2)CC(O)C1 (stereo not drawn) [Compound 270, 5-chloro-1′-(2-{4-[(trans) or (cis)-3-hydroxy-1-methanesulfonylcyclobutyl]phenoxy}ethyl)-1,2-dihydrospiro[indole-3,4′-piperidin]-2-one]",pEC50,[1]; HEK293 overexpressing APOL1 G2,7.59
same,pEC50,[2]; [9],7.14
same,pEC50,[3]; [10],7.09
same,pEC50,[4]; [11],7.60
"C[C@]1(O)C[C@@H](n2c(=O)cnc3cc(OCCN4CCC5(CC4)C(=O)Nc4ccc(Cl)cc45)cnc32)C1 [Compound 358, 5-chloro-1′-[2-({3-oxo-4-[(cis)-3-hydroxy-3-methylcyclobutyl]-3H,4H-pyrido[2,3-b]pyrazin-7-yl}oxy)ethyl]-1,2-dihydrospiro[indole-3,4′-piperidin]-2-one]",pEC50,[1]; [5],7.19
same,pEC50,[2]; [6],7.21
same,pEC50,[3]; [7],7.12
same,pEC50,[4]; [8],7.50
"CC1(O)CN(c2ncc(OCCN3CCC4(CC3)C(=O)Nc3ccc(C(F)F)cc34)cn2)C1 [Compound 395, 5-(difluoromethyl)-1′-(2-{[2-(3-hydroxy-3-methylazetidin-1-yl)pyrimidin-5-yl]oxy}ethyl)-1,2-dihydrospiro[indole-3,4′-piperidin]-2-one]",pEC50,[1]; [5],7.06
same,pEC50,[2]; [6],6.62
same,pEC50,[3]; [7],6.51
same,pEC50,[4]; [8],6.97
